From patent US20180292376A1, “DIFFUSION CELL TESTING METHODS CONTAINING BIPHASIC RECEPTOR FLUIDS” (BUFFERAD Illinois Inc. d/b/a Zyleris PharmaTech, Inc., priority 2017, published 2018)
Values joined by “and” are separate entries in the source; they are usually repeats but may differ in a detail not shown here. Identical values can stand only once.

Assay: In vitro release testing (IVRT), static vertical diffusion cell, synthetic membrane, UV-VIS analysis
Assay type: physicochemical
Settings: for amount of xylene cyanol released into the water phase / release of Xylene Cyanol into the receptor fluid: ointment
Procedure: In Vitro Release Testing Method.
Release of pharmaceutically active compounds from semi-solid dosage forms was evaluated in an in vitro model of static vertical diffusion cell using a synthetic membrane model. […] The samples were analyzed using a UV-VIS spectrometer. […]
Test time points: 0, 2, 4, 6, 8, and 10 hours. Each test was conducted in four replicates (N=4). Square root of test time points: 0, 1.41, 2.00, 2.45, 2.83, and 3.16.
Membrane: Polypropylene (pore size: 0.45 micron).
Static vertical diffusion cell parameters: Area of the membrane diffusion area: 0.95 square centimeters.
Dosing level: infinite dose at about 3.0 milliliter of the semi-solid dosage form.
Static vertical diffusion cell consists of a donor and receptor compartment separated by a synthetic membrane. The dosing compartment was for the dosed semi-solid dosage form. […] Before dosing, the diffusion cell was pre-incubated at 32° C. for about 20 to 45 minutes. The t=0 samples were taken after the incubation period prior to dosing.
During the experiment, the receptor fluid was in intimate contact with the membrane through a mixing mechanism, such as, e.g., magnetic stirring bar, or orbit shaker, and maintained at 32° C. using a heating mechanism, such as, e.g., dry heat block, or circulating water bath. At each time point, entire content of the receptor fluid was collected and replaced with a fresh batch pre-incubated at 32° C.
An ointment dosage form was prepared as an example of the semi-solid dosage form. Petrolatum was heated to about 50 to 70° C. while mixing. Xylene Cyanol was added to the heated petrolatum while heating and mixing. The mixture was mixed until uniform. Then, the mixture was slowly cooled to room temperature while mixing to yield the ointment formulation.

SMILES: CCN=C1C=CC(=C(c2ccc(NCC)c(C)c2)c2ccc(S(=O)(=O)[O-])cc2S(=O)(=O)O)C=C1C.[Na+] [Xylene Cyanol]
- amount of xylene cyanol released (0.5% Xylene Cyanol in Petrolatum, infinite dose, biphasic receptor fluid: 1-Octanol:H2O 1:1 v:v, square root of time (hr) 0.00 (0 h, prior to dosing)): 0.0000 mcg/cm2
- amount of xylene cyanol released (0.5% Xylene Cyanol in Petrolatum, infinite dose, biphasic receptor fluid: 1-Octanol:H2O 1:1 v:v, square root of time (hr) 2.00 (4 h)): 1.2143 mcg/cm2 and 1.9575 mcg/cm2 and 1.4206 mcg/cm2 and 1.4438 mcg/cm2
- amount of xylene cyanol released (0.5% Xylene Cyanol in Petrolatum, infinite dose, biphasic receptor fluid: 1-Octanol:H2O 1:1 v:v, square root of time (hr) 2.45 (6 h)): 2.2025 mcg/cm2 and 3.0973 mcg/cm2 and 2.5204 mcg/cm2 and 2.5436 mcg/cm2
- amount of xylene cyanol released (0.5% Xylene Cyanol in Petrolatum, infinite dose, biphasic receptor fluid: 1-Octanol:H2O 1:1 v:v, square root of time (hr) 2.83 (8 h)): 3.1044 mcg/cm2 and 4.1192 mcg/cm2 and 3.3865 mcg/cm2 and 3.7213 mcg/cm2
- amount of xylene cyanol released (0.5% Xylene Cyanol in Petrolatum, infinite dose, biphasic receptor fluid: 1-Octanol:H2O 1:1 v:v, square root of time (hr) 3.16 (10 h)): 3.8674 mcg/cm2 and 4.8589 mcg/cm2 and 4.2884 mcg/cm2 and 4.5853 mcg/cm2
- amount of xylene cyanol released (0.5% Xylene Cyanol in Petrolatum, infinite dose, biphasic receptor fluid: 1-Octanol:PBS Buffer pH 7.4 1:1 v:v, square root of time 0.00 (0 h, prior to dosing)): 0.0000 mcg/cm2
- amount of xylene cyanol released (0.5% Xylene Cyanol in Petrolatum, infinite dose, biphasic receptor fluid: 1-Octanol:PBS Buffer pH 7.4 1:1 v:v, square root of time 2.00 (4 h)): 0.3389 mcg/cm2 and 0.4105 mcg/cm2 and 0.5179 mcg/cm2 and 0.4295 mcg/cm2
- amount of xylene cyanol released (0.5% Xylene Cyanol in Petrolatum, infinite dose, biphasic receptor fluid: 1-Octanol:PBS Buffer pH 7.4 1:1 v:v, square root of time 2.45 (6 h)): 1.2295 mcg/cm2 and 1.3179 mcg/cm2 and 0.8863 mcg/cm2 and 0.9032 mcg/cm2
- amount of xylene cyanol released (0.5% Xylene Cyanol in Petrolatum, infinite dose, biphasic receptor fluid: 1-Octanol:PBS Buffer pH 7.4 1:1 v:v, square root of time 2.83 (8 h)): 1.3579 mcg/cm2 and 1.8147 mcg/cm2 and 1.4400 mcg/cm2 and 1.5937 mcg/cm2
- amount of xylene cyanol released (0.5% Xylene Cyanol in Petrolatum, infinite dose, biphasic receptor fluid: 1-Octanol:PBS Buffer pH 7.4 1:1 v:v, square root of time 3.16 (10 h)): 1.8884 mcg/cm2 and 2.4316 mcg/cm2 and 1.7305 mcg/cm2 and 1.9768 mcg/cm2
- Slope - Average (0.5% Xylene Cyanol in Petrolatum, infinite dose, receptor fluid: 1-Octanol:H2O 1:1 v:v, N=4 runs): 2.2026 mcg/cm2/h^0.5
- Slope - Average (0.5% Xylene Cyanol in Petrolatum, infinite dose, receptor fluid: 1-Octanol:PBS Buffer pH 7.4 1:1 v:v): 1.0412 mcg/cm2/h^0.5
- amount of xylene cyanol released (0.5% Xylene Cyanol in Petrolatum, infinite dose, receptor fluid: 1-Octanol, square root of time (hr) 0.00 (0 h, prior to dosing)): BDL
- amount of xylene cyanol released (0.5% Xylene Cyanol in Petrolatum, infinite dose, receptor fluid: 1-Octanol, square root of time (hr) 1.41 (2 h)): BDL
- amount of xylene cyanol released (0.5% Xylene Cyanol in Petrolatum, infinite dose, receptor fluid: 1-Octanol, square root of time (hr) 2.00 (4 h)): BDL
- amount of xylene cyanol released (0.5% Xylene Cyanol in Petrolatum, infinite dose, receptor fluid: 1-Octanol, square root of time (hr) 2.45 (6 h)): BDL
- amount of xylene cyanol released (0.5% Xylene Cyanol in Petrolatum, infinite dose, receptor fluid: 1-Octanol, square root of time (hr) 2.83 (8 h)): BDL
- amount of xylene cyanol released (0.5% Xylene Cyanol in Petrolatum, infinite dose, receptor fluid: 1-Octanol, square root of time (hr) 3.16 (10 h)): BDL
- amount of xylene cyanol released (0.5% Xylene Cyanol in Petrolatum, infinite dose, receptor fluid: 1-octanol:ethanol 50:50 v:v, square root of time (hr) 0.00 (0 h, prior to dosing)): BDL
- amount of xylene cyanol released (0.5% Xylene Cyanol in Petrolatum, infinite dose, receptor fluid: 1-octanol:ethanol 50:50 v:v, square root of time (hr) 1.41 (2 h)): BDL
- amount of xylene cyanol released (0.5% Xylene Cyanol in Petrolatum, infinite dose, receptor fluid: 1-octanol:ethanol 50:50 v:v, square root of time (hr) 2.00 (4 h)): BDL
- amount of xylene cyanol released (0.5% Xylene Cyanol in Petrolatum, infinite dose, receptor fluid: 1-octanol:ethanol 50:50 v:v, square root of time (hr) 2.45 (6 h)): BDL
- amount of xylene cyanol released (0.5% Xylene Cyanol in Petrolatum, infinite dose, receptor fluid: 1-octanol:ethanol 50:50 v:v, square root of time (hr) 2.83 (8 h)): BDL
- amount of xylene cyanol released (0.5% Xylene Cyanol in Petrolatum, infinite dose, receptor fluid: 1-octanol:ethanol 50:50 v:v, square root of time (hr) 3.16 (10 h)): BDL
- amount of xylene cyanol released (0.5% Xylene Cyanol in Petrolatum, infinite dose, receptor fluid: Isopropyl alcohol:water 50:50 v:v, square root of time (hr) 0.00 (0 h, prior to dosing)): BDL
- amount of xylene cyanol released (0.5% Xylene Cyanol in Petrolatum, infinite dose, receptor fluid: Isopropyl alcohol:water 50:50 v:v, square root of time (hr) 1.41 (2 h)): BDL
- amount of xylene cyanol released (0.5% Xylene Cyanol in Petrolatum, infinite dose, receptor fluid: Isopropyl alcohol:water 50:50 v:v, square root of time (hr) 2.00 (4 h)): BDL
- amount of xylene cyanol released (0.5% Xylene Cyanol in Petrolatum, infinite dose, receptor fluid: Isopropyl alcohol:water 50:50 v:v, square root of time (hr) 2.45 (6 h)): BDL
- amount of xylene cyanol released (0.5% Xylene Cyanol in Petrolatum, infinite dose, receptor fluid: Isopropyl alcohol:water 50:50 v:v, square root of time (hr) 2.83 (8 h)): BDL
- amount of xylene cyanol released (0.5% Xylene Cyanol in Petrolatum, infinite dose, receptor fluid: Isopropyl alcohol:water 50:50 v:v, square root of time (hr) 3.16 (10 h)): BDL
- amount of xylene cyanol released (0.5% Xylene Cyanol in Petrolatum, infinite dose, receptor fluid: dimethyl sulfoxide:ethanol 50:50 v:v, square root of time (hr) 0.00 (0 h, prior to dosing)): BDL
- amount of xylene cyanol released (0.5% Xylene Cyanol in Petrolatum, infinite dose, receptor fluid: dimethyl sulfoxide:ethanol 50:50 v:v, square root of time (hr) 1.41 (2 h)): BDL
- amount of xylene cyanol released (0.5% Xylene Cyanol in Petrolatum, infinite dose, receptor fluid: dimethyl sulfoxide:ethanol 50:50 v:v, square root of time (hr) 2.00 (4 h)): BDL
- amount of xylene cyanol released (0.5% Xylene Cyanol in Petrolatum, infinite dose, receptor fluid: dimethyl sulfoxide:ethanol 50:50 v:v, square root of time (hr) 2.45 (6 h)): BDL
- amount of xylene cyanol released (0.5% Xylene Cyanol in Petrolatum, infinite dose, receptor fluid: dimethyl sulfoxide:ethanol 50:50 v:v, square root of time (hr) 2.83 (8 h)): BDL
- amount of xylene cyanol released (0.5% Xylene Cyanol in Petrolatum, infinite dose, receptor fluid: dimethyl sulfoxide:ethanol 50:50 v:v, square root of time (hr) 3.16 (10 h)): BDL
- amount of xylene cyanol released (0.5% Xylene Cyanol in Petrolatum, infinite dose, receptor fluid: dimethyl sulfoxide:isopropyl alcohol:water 30:30:40 v:v:v, square root of time (hr) 0.00 (0 h, prior to dosing)): BDL
- amount of xylene cyanol released (0.5% Xylene Cyanol in Petrolatum, infinite dose, receptor fluid: dimethyl sulfoxide:isopropyl alcohol:water 30:30:40 v:v:v, square root of time (hr) 1.41 (2 h)): BDL
- amount of xylene cyanol released (0.5% Xylene Cyanol in Petrolatum, infinite dose, receptor fluid: dimethyl sulfoxide:isopropyl alcohol:water 30:30:40 v:v:v, square root of time (hr) 2.00 (4 h)): BDL
- amount of xylene cyanol released (0.5% Xylene Cyanol in Petrolatum, infinite dose, receptor fluid: dimethyl sulfoxide:isopropyl alcohol:water 30:30:40 v:v:v, square root of time (hr) 2.45 (6 h)): BDL
- amount of xylene cyanol released (0.5% Xylene Cyanol in Petrolatum, infinite dose, receptor fluid: dimethyl sulfoxide:isopropyl alcohol:water 30:30:40 v:v:v, square root of time (hr) 2.83 (8 h)): BDL
- amount of xylene cyanol released (0.5% Xylene Cyanol in Petrolatum, infinite dose, receptor fluid: dimethyl sulfoxide:isopropyl alcohol:water 30:30:40 v:v:v, square root of time (hr) 3.16 (10 h)): BDL
- amount of xylene cyanol released (0.5% Xylene Cyanol in Petrolatum, infinite dose, receptor fluid: isopropyl alcohol, square root of time (hr) 0.00 (0 h, prior to dosing)): BDL
- amount of xylene cyanol released (0.5% Xylene Cyanol in Petrolatum, infinite dose, receptor fluid: isopropyl alcohol, square root of time (hr) 1.41 (2 h)): BDL
- amount of xylene cyanol released (0.5% Xylene Cyanol in Petrolatum, infinite dose, receptor fluid: isopropyl alcohol, square root of time (hr) 2.00 (4 h)): BDL
- amount of xylene cyanol released (0.5% Xylene Cyanol in Petrolatum, infinite dose, receptor fluid: isopropyl alcohol, square root of time (hr) 2.45 (6 h)): BDL
- amount of xylene cyanol released (0.5% Xylene Cyanol in Petrolatum, infinite dose, receptor fluid: isopropyl alcohol, square root of time (hr) 2.83 (8 h)): BDL
- amount of xylene cyanol released (0.5% Xylene Cyanol in Petrolatum, infinite dose, receptor fluid: isopropyl alcohol, square root of time (hr) 3.16 (10 h)): BDL
- Slope (release rate) (0.5% Xylene Cyanol in Petrolatum, infinite dose, receptor fluid: water, amount released vs square root of time): BDL
- amount of xylene cyanol released (0.5% Xylene Cyanol in Petrolatum, infinite dose, receptor fluid: water, square root of time (hr) 0.00 (0 h, prior to dosing)): BDL
- amount of xylene cyanol released (0.5% Xylene Cyanol in Petrolatum, infinite dose, receptor fluid: water, square root of time (hr) 1.41 (2 h)): BDL
- amount of xylene cyanol released (0.5% Xylene Cyanol in Petrolatum, infinite dose, receptor fluid: water, square root of time (hr) 2.00 (4 h)): BDL
- amount of xylene cyanol released (0.5% Xylene Cyanol in Petrolatum, infinite dose, receptor fluid: water, square root of time (hr) 2.45 (6 h)): BDL
- amount of xylene cyanol released (0.5% Xylene Cyanol in Petrolatum, infinite dose, receptor fluid: water, square root of time (hr) 2.83 (8 h)): BDL
- amount of xylene cyanol released (0.5% Xylene Cyanol in Petrolatum, infinite dose, receptor fluid: water, square root of time (hr) 3.16 (10 h)): BDL
- amount of xylene cyanol released into the water phase (biphasic receptor fluid 1-butanol:1-octanol:water 20:30:50 v:v:v): high amount
- amount of xylene cyanol released into the water phase (biphasic receptor fluid 1-hexanol:1-octanol:water 25:25:50 v:v:v): high amount
- amount of xylene cyanol released into the water phase (biphasic receptor fluid 1-hexanol:water 50:50 v:v): high amount
- amount of xylene cyanol released into the water phase (biphasic receptor fluid 1-octanol:PEG 400:water 40:20:40 v:v:v): higher amount
- amount of xylene cyanol released into the water phase (biphasic receptor fluid 1-octanol:ethanol:water 40:20:40 v:v:v): higher amount
- amount of xylene cyanol released into the water phase (biphasic receptor fluid 1-octanol:glycerin:water 40:20:40 v:v:v): higher amount
- amount of xylene cyanol released into the water phase (biphasic receptor fluid 1-octanol:isopropanol:water 40:20:40 v:v:v): higher amount
- amount of xylene cyanol released into the water phase (biphasic receptor fluid 1-octanol:propylene glycol:water 40:20:40 v:v:v): higher amount
- release of Xylene Cyanol into the receptor fluid (one-phase receptor fluid: 1-octanol): no release
- release of Xylene Cyanol into the receptor fluid (one-phase receptor fluid: 1-octanol:ethanol 50:50 v:v): no release
- release of Xylene Cyanol into the receptor fluid (one-phase receptor fluid: dimethyl sulfoxide:ethanol 50:50 v:v): no release
- release of Xylene Cyanol into the receptor fluid (one-phase receptor fluid: dimethyl sulfoxide:isopropyl alcohol:water 30:30:40 v:v:v): no release
- release of Xylene Cyanol into the receptor fluid (one-phase receptor fluid: isopropyl alcohol): no release
- release of Xylene Cyanol into the receptor fluid (one-phase receptor fluid: isopropyl alcohol:water 50 to 50 in volume): no release
- release of Xylene Cyanol into the receptor fluid (one-phase receptor fluid: water): no release
